From PMC4643908 (2015)

Key:
[1] = tested on: Tebowned (RNA, riboswitch) GGACGAUUGAGGAUAUUUAGACAUAGAGAAGGCAAUGGAGAGAGAGCUUUUUAAAGAAACAACAACAACAAC; test: chemical mapping; settings: mapping pattern changes on FMN
[2] = tested on: V. vulnificus add adenine riboswitch (with expression platform segment) (RNA, riboswitch) GGGAACCGAGUAGGUUCGCUUCAUAUAAUCCUAAUGAUAUGGUUUGGGAGUUUCUACCAAGAGCCUUAAACUCUUGAUUAUGAAGUCUGUCGCUUUAUCCGAAAUUUUAUAAAGAGAAGACUCAUGAAUGGGAUCCGAGUAGGAUCCUGAAAAAAACAACAACAAC; test: 1M7 SHAPE mutate-and-map chemical mapping; settings: 50 mM KCl, 25 mM K3PO4, 10 mM MgCl2; pH 6.5; room temperature; 5 mM adenine; protections in aptamer

Row | binding [1] | binding [2] | SMILES
1 | yes |  | Cc1cc2nc3c(=O)[nH]c(=O)nc-3n(C[C@H](O)[C@H](O)[C@H](O)COP(=O)(O)O)c2cc1C
2 |  | yes | Nc1ncnc2[nH]cnc12
